Values quoted from earlier work in patent publication US12390507B1, “Method to provide consistent product batches active components for alkaloids of kratom plants” (priority 2021, dated 2025).

What was measured:
[1] = tested on: α2-adrenergic receptor; conditions: α2 versus α1
[2] = tested on: α1-adrenergic receptor; conditions: α1 versus α2 adrenergic receptor antagonist
[3] = tested on: opioid receptors

COC(=O)[C@@H]1[C@H]2C[C@H]3c4[nH]c5ccccc5c4CCN3C[C@@H]2CC[C@@H]1O [yohimbine]
higher affinity for the α2-adrenergic receptor over the α1-adrenergic [1]: 30 ×

Corynantheidine
greater affinity for the α1-adrenergic receptor (over α2-adrenergic receptor) [2]: 10 ×

CC[C@@H]1CN2CCc3c([nH]c4cccc(O)c34)[C@@H]2C[C@@H]1/C(=C\OC)C(=O)OC [9-Hydroxycorynantheidine]
maximum inhibition of electrically stimulated guinea-pig ileum contraction ([3]; compared with mitragynine): weaker than that of mitragynine
effect on electrically stimulated guinea-pig ileum contraction ([3]; one study, quoted): inhibited
effect of naloxone on the inhibition of guinea-pig ileum contraction ([3]; with naloxone): antagonized by naloxone

COC(=O)[C@H]1[C@H]2C[C@H]3c4[nH]c5ccccc5c4CCN3C[C@H]2CC[C@@H]1O [rauwolscine]
higher affinity for the α2-adrenergic receptor over the α1-adrenergic [1]: 30 ×
